Test results: patent publication US6482411B1, “Methods of reducing bone loss with CD40 ligand” (Board of Regents, The University of Texas System, priority 1999, dated 2002)
Marks after values point to notes of the source that are not given here.

Tests used:
[1] = approximately 2,000 women randomized; cited from earlier work
[2] = cited from earlier work
MLO-Y4 cells = test: FACS staining for Annexin V/propidium iodide in MLO-Y4 cells; assay type: cell-based, murine; settings: CD40L pretreatment 15 min where given, then dexamethasone or TNFα for 6 h
Protocol: (§1) The MLO-Y4 cells were pretreated with CD40L (0.5-1.5 μg/ml) for 15 mins. followed by treatment with either dexamethasone at 10^−6 M (10^−7M in earlier studies), TNFα at 1 ng/ml or etoposide at 50 μM for 6 hrs. The cells were cultured in 2.5% FBS/2.5% CS in α-MEM, 5% CO2, 37° C.
FACS Staining for Annexin V/Propidium Iodide: In early stages of apoptosis the cells lose membrane asymmetry and translocate the membrane phospholipid phosphatidylserine to the outer leaflet of the plasma membrane, where it can be detected by its high affinity binding to annexin V (Rillema, 1998). Annexin V is a calcium-dependent phospholipid-binding protein that has a high affinity for phosphatidylserine. Prolonged apoptosis can cause cell death and these non-viable cells stain positive for vital dye Propidium Iodide (PI) as well as Annexin V. Apoptotic cells stain Annexin V positive and Propidium iodide negative.
The staining protocol includes washing single cell suspension twice with PBS and resuspending in 1×binding buffer (0.1 M HEPES/NaOH, pH 7.4; […]; 25 mM CaCl2) at a concentration of one million cells/ml. The cells are aliquoted (100 μl) in polypropylene tubes, incubated with annexin V FITC (5 μl) and propidium iodide (10 μl) for 15 minutes at 4° C. in the dark, and analyzed by flow cytometry within 1 hour. […]

[3] = tested on: MLO-Y4 cells stably transduced with nuclear GFP; test: GFP nuclear stain apoptosis assay in MLO-Y4 cells; assay type: cell-based, murine; settings: CD40L pretreatment 15 min where given, then dexamethasone, TNFα or etoposide 50 μM for 6 h
Protocol: as §1
GFP Nuclear Stain: Visualization of morphological features of apoptosis in the nucleus of the cells, such as chromatin condensation and nuclear fragmentation, was determined in this assay. During apoptosis the nucleus becomes shrunken and pyknotic as a result of DNA degradation. MLO-Y4 cells were stably transduced with a retroviral vector carrying the green fluorescent protein (GFP) CDNA with a nuclear localization sequence designed to target the GFP to the nucleus (Plotkin et al., 1998). […] At least 500 cells from fields selected by systematic random ampling were examined for each condition (Plotkinn et al., 1999; Jilka et al., 1999).

[4] = tested on: MLO-Y4 osteocytic cell line; test: Trypan blue exclusion (cell death) in MLO-Y4 cells; assay type: cell-based, murine; settings: CD40L pretreatment 15 min where given, then dexamethasone 10^-6 M (10^-7 M earlier), TNFα or etoposide 50 μM for 6 h
Protocol: The MLO-[…][…] (0.5-1.5 μg/ml) for 15 mins. followed by treatment with either dexamethasone at 10^-6 M (10^-7M in earlier studies), TNFα at 1 ng/ml or etoposide at 50 μM for 6 hrs. […] Trypan Blue Exclusion: Staining of cultured cells with vital dyes such as trypan blue is commonly used approach to quantify cell death. This is based on the premise that viable cells with intact membranes will exclude specific dyes such as trypan blue, which can easily be quantified under light microscopy ([…], 1998). The percentage of trypan blue positive cells in each culture condition was used to calculate cell survival. This method is […] for screening multiple samples or treatment conditions, but can underestimate cell death since membrane integrity can be intact until late in apoptosis. Trypan vital dye staining is not specific for apoptosis and will also stain necrotic cells. This was confirmed by additional analysis discussed below. Apoptosis of MLO-Y4 or calvaria cells was quantified by trypan blue staining (Jilka et al., 1998). Nonadherent cells were combined with adherent cells released from the culture dish using trypsin-EDTA, resuspended in medium containing serum, and collected by centrifugation. […] At least 100 cells per condition were counted. Trypan vital dye staining is not specific for apoptosis and will also stain necrotic cells. […]

SMILES	GFP, percent positive cells (apoptotic) [3]	Trypan Blue, percent positive cells (dead) [4] [%]	other results
NCCCC(O)(P(=O)(O)O)P(=O)(O)O [alendronate]			women with vertebra fractures versus placebo [1]: significantly fewer
O=C(c1ccc(OCCN2CCCCC2)cc1)c1c(-c2ccc(O)cc2)sc2cc(O)ccc12 [raloxifene]			proportion of women reporting hot flashes ([2]; 60 mg raloxifene daily, placebo 22.7%, no significant difference): 26.3%; endometrial proliferation ([2]; over 600 menopausal women): without inducing endometrial proliferation
C[C@@H]1C[C@H]2[C@@H]3CCC4=CC(=O)C=C[C@]4(C)[C@@]3(F)[C@@H](O)C[C@]2(C)[C@@]1(O)C(=O)CO [Dex, dexamethasone]	24.0* percent	13.7 ± 1.4	Annexin V, percent positive cells (apoptotic) (MLO-Y4 cells): 23.7 ± 1.6%
COc1cc([C@@H]2c3cc4c(cc3[C@@H](O[C@@H]3O[C@@H]5CO[C@@H](C)O[C@H]5[C@H](O)[C@H]3O)[C@H]3COC(=O)[C@H]23)OCO4)cc(OC)c1O [Etoposide, etoposide]	15.9* percent	15.8 ± 2.0	
